≈ marks a conversion by molar mass, not a printed value.
Key:
HEL [1] = experiment: Cytotoxicity against HEL cells assessed as alteration in morphology after 3 days; type: functional; conditions: Homo sapiens, 72 h
HEL [2] = experiment: Cytotoxicity against HEL cells assessed as cell growth after 3 days; type: functional, Homo sapiens; conditions: Homo sapiens, HEL, 72 h; read-out: CC50
Human alphaherpesvirus 2 [3] = type: functional, organism-based; conditions: Human alphaherpesvirus 2, G, HEL
Human respirovirus 3 = experiment: Antiviral activity against Parainfluenza 3 in Vero cells reduction of virus-induced cytopathogenicity after 4 days; type: functional, organism-based; conditions: Human respirovirus 3, Vero, 96 h
Coxsackievirus B4 [4] = type: functional, organism-based; conditions: Enterovirus B, Vero
Human alphaherpesvirus 3 [5] = type: functional, organism-based; conditions: Human alphaherpesvirus 3, 07-1, HEL
[6] = test system: Mammalian orthoreovirus 1; experiment: Antiviral activity against Reovirus 1 in Vero cells reduction of virus-induced cytopathogenicity after 4 days; type: functional, organism-based; conditions: Mammalian orthoreovirus 1, Vero, 96 h
Coxsackievirus B4 [7] = type: functional, organism-based; conditions: Enterovirus B, HeLa
HeLa = experiment: Cytotoxicity against HeLa cells assessed as alteration in morphology after 3 days; type: functional, cell-based; conditions: Homo sapiens, 72 h
Sindbis virus = experiment: Antiviral activity against Sindbis virus in Vero cells reduction of virus-induced cytopathogenicity after 4 days; type: functional, organism-based; conditions: 96 h
Punta Toro virus = experiment: Antiviral activity against Punta Toro virus in Vero cells reduction of virus-induced cytopathogenicity after 4 days; type: functional, organism-based; conditions: 96 h
Human alphaherpesvirus 3 [8] = type: functional, organism-based; conditions: Human alphaherpesvirus 3, OKA, HEL
[9] = Cytotoxicity against Vero cells assessed as alteration in morphology after 3 days; type: cell-based, Chlorocebus sabaeus; conditions: chlorocebus sabaeus, Vero cells
Human alphaherpesvirus 2 [10] = type: functional, organism-based; conditions: Human alphaherpesvirus 2, Lyons, HEL
[11] = test system: Vesicular stomatitis virus; experiment: microbe, parasite or virus in culture; conditions: HEL
[12] = test system: Vesicular stomatitis virus; experiment: microbe, parasite or virus in culture; conditions: HeLa
[13] = test system: Respiratory syncytial virus; type: functional, organism-based; conditions: human respiratory syncytial virus, HeLa
Human adenovirus 2 = type: functional, organism-based; conditions: Human mastadenovirus C, HEL
[14] = Cytotoxicity against HSB2 cells assessed as alteration in morphology after 3 days; type: functional, Homo sapiens, CCRF-HSB-2; conditions: Homo sapiens, CCRF-HSB-2, 72 h; read-out: MCC
[15] = test system: Moloney murine sarcoma virus; conditions: C3H
Human betaherpesvirus 5 [16] = type: functional, organism-based; conditions: Human betaherpesvirus 5, Davis, HEL
[17] = test system: Human immunodeficiency virus 2; type: functional, organism-based; conditions: Human immunodeficiency virus 2, ROD, CCRF-CEM, 96 h
Human betaherpesvirus 5 [18] = type: functional, organism-based; conditions: Human betaherpesvirus 5, AD169, HEL
[19] = Cytotoxicity against C3H cells assessed as alteration in morphology after 3 days; type: cell-based, Mus musculus; conditions: mouse, C3H cells
[20] = test system: Human immunodeficiency virus 1; type: functional, organism-based; conditions: Human immunodeficiency virus 1, 3B, CCRF-CEM, 96 h

| Compound | MCC (HEL [1]) | CC50 (HEL [2]) | EC50 (Human alphaherpesvirus 2 [3]) | EC50 (Human respirovirus 3) | EC50 (Coxsackievirus B4 [4]) | EC50 (Human alphaherpesvirus 3 [5]) | EC50 [6] | EC50 (Coxsackievirus B4 [7]) | MCC (HeLa) | EC50 (Sindbis virus) | EC50 (Punta Toro virus) | EC50 (Human alphaherpesvirus 3 [8]) | MCC at 72 h [9] | EC50 (Human alphaherpesvirus 2 [10]) | EC50 [11] | EC50 [12] | EC50 [13] | EC50 [15] | EC50 (Human betaherpesvirus 5 [16]) | EC50 (Human betaherpesvirus 5 [18]) | other results |
| --- | --- | --- | --- | --- | --- | --- | --- | --- | --- | --- | --- | --- | --- | --- | --- | --- | --- | --- | --- | --- | --- |
| Nc1nc2c(ncn2COCCO)c(=O)[nH]1 [ACYCLOVIR] | > 100 µg/mL | 212 µg/mL (≈ 941 µM) | 0.05 µg/mL (≈ 0.222 µM) |  |  |  |  |  |  |  |  |  |  |  |  |  |  |  |  |  |  |
| O=c1[nH]c(=O)n([C@H]2C[C@H](O)[C@@H](CO)O2)cc1/C=C/Br [BRIVUDINE] | > 100 µg/mL | 212 µg/mL (≈ 636 µM) | 9 µg/mL (≈ 27 µM) | > 200 µg/mL | > 200 µg/mL | ≥ 44.4 µg/mL | > 200 µg/mL | > 200 µg/mL | > 200 µg/mL | > 200 µg/mL | > 200 µg/mL | 0.0022 µg/mL (≈ 0.0066 µM) | > 200 µg/mL | 8.8 µg/mL (≈ 26.4 µM) | 200 µg/mL (≈ 600 µM) | 200 µg/mL (≈ 600 µM) | > 200 µg/mL |  |  |  |  |
| Nc1ccn(C[C@@H](CO)OCP(=O)(O)O)c(=O)n1.O.O [CIDOFOVIR] | > 31.5 µg/mL | 76 µg/mL | 0.65 µg/mL | > 31.5 µg/mL | > 31.5 µg/mL | 0.03 µg/mL | > 31.5 µg/mL | > 31.5 µg/mL | > 31.5 µg/mL | > 31.5 µg/mL | > 31.5 µg/mL | 0.09 µg/mL | > 31.5 µg/mL | 0.42 µg/mL | > 31.5 µg/mL | > 31.5 µg/mL | > 31.5 µg/mL | > 4 µg/mL | 0.18 µg/mL | 0.15 µg/mL | EC50 (Human adenovirus 2): 2 µg/mL; MCC [14]: 60 µg/mL; EC50 [17]: > 20 µg/mL; MCC at 72 h [19]: 20 µg/mL; EC50 [20]: > 20 µg/mL |
| Nc1ccn(C[C@H]2COP(=O)(O)CO2)c(=O)n1 [CYCLIC CIDOFOVIR] | > 100 µg/mL | ≥ 76 µg/mL | 0.76 µg/mL (≈ 2.91 µM) | > 200 µg/mL | > 200 µg/mL | 0.04 µg/mL (≈ 0.153 µM) | > 200 µg/mL | > 200 µg/mL | > 200 µg/mL | > 200 µg/mL | > 200 µg/mL | 0.12 µg/mL (≈ 0.459 µM) | > 200 µg/mL | 0.45 µg/mL (≈ 1.72 µM) | > 200 µg/mL | > 200 µg/mL | > 200 µg/mL | > 20 µg/mL | 0.22 µg/mL (≈ 0.842 µM) | 0.21 µg/mL (≈ 0.804 µM) | EC50 [17]: > 20 µg/mL; MCC at 72 h [19]: 100 µg/mL; EC50 [20]: > 20 µg/mL |
| Nc1nc2c(ncn2COC(CO)CO)c(=O)[nH]1 [GANCICLOVIR] | > 100 µg/mL | 122 µg/mL (≈ 478 µM) | 0.0036 µg/mL (≈ 0.0141 µM) |  |  |  |  |  |  |  |  |  |  | 0.0014 µg/mL (≈ 0.00549 µM) |  |  |  |  | 1.29 µg/mL (≈ 5.05 µM) | 1.68 µg/mL (≈ 6.58 µM) |  |
| NC(=O)c1ncn([C@@H]2O[C@H](CO)[C@@H](O)[C@H]2O)n1 [RIBAVIRIN] | > 200 µg/mL |  |  | 120 µg/mL (≈ 491 µM) | > 200 µg/mL |  | 200 µg/mL (≈ 819 µM) | 90 µg/mL (≈ 369 µM) | > 200 µg/mL | 120 µg/mL (≈ 491 µM) | 40 µg/mL (≈ 164 µM) |  | > 200 µg/mL |  | 120 µg/mL (≈ 491 µM) | 24 µg/mL (≈ 98.3 µM) | 24 µg/mL (≈ 98.3 µM) |  |  |  |  |

— ChEMBL document CHEMBL1138246, “Ester prodrugs of cyclic 1-(S)-[3-hydroxy-2-(phosphonomethoxy)propyl]-5-azacytosine: synthesis and antiviral activity” (J Med Chem, 2007)
